# Assay results published in patent publication US6429212B1, “Medicinal composition” (Ishihara Sangyo Kaisha Ltd., priority 1996, dated 2002).
# What was measured:
# [1] = system: angiogenesis under skin of mice; assay: Angiogenesis under skin of mice (b-FGF matrigel, amount of hemoglobin); type: in vivo, BALB/c male mice; design: key to Amount of hemoglobin, value in parentheses (Control = 100): % of control (control = 100), hemoglobin per matrigel
# Protocol: By subcutaneously injecting a mixture having recombinant human fibroblast growth factor-basic added to matrigel, to the back of a mice, angiogenesis occurs under skin of the mice. By measuring the amount of hemoglobin in matrigel, angiogenesis can be quantified. Influences of the compounds of the present invention to angiogenesis were observed.
# Matrigel (trademark; basement membrane matrix, phenol is not included, purchased from Becton Dickinson Labware) was added to Dulbecco's modified Eagle's medium (purchased from Sigma), so that the concentration was 9 mg/ml. Recombinant Human Fibroblast Growth Factor-basic (b-FGF, produced by Intergen) was added thereto, so that the concentration was 2 μg/700 μl. The mixture was subcutaneously injected to 6-week BALB/c male mice (Charles River Japan Inc.) in an amount of 700 μl per mouse. Everyday after matrigel injection, a suspension having the compound of the present invention added to 0.8% Tween 80 (purchased from Nacalai Tesque), so that the predetermined concentration could be obtained, was intraperitoneally injected to the mice. 8 days after matrigel injection, matrigel was taken out from the mice, which was then placed in 200 μl of 1% NH4OH at room temperature for 4 hours, to extract hemoglobin. The extraction and matrigel together were subjected to centrifugal separation (10000 rpm, 5 min). 100 μl of the obtained supernatant and 500 μl of Drabkin's reagent (purchased from Sigma) were mixed and left at room temperature. After left more than 15 minutes, absorbance of the supernatant at a wavelength of 540 nm was measured by using a spectrophotometer SPECTRA max 250 (produced by Molecular Devices). The amount of hemoglobin in the supernatant was obtained from the standard curve prepared by using hemoglobin standard (purchased from Sigma), and the amount of hemoglobin per matrigel obtained from a mouse was calculated.
# The amount of the hemoglobin in each treatment fraction was corrected by the amount of hemoglobin wherein matrigel having no b-FGF added was injected to the mice, and 0.8% Tween 80 as a solvent alone was injected everyday.
# Influences of the compounds of the present invention to angiogenesis under skin of mice were observed, in the same manner as in Test Example 8.
# [2] = system: TNF-α production or secretion by human leukemia cells HL-60 (Okadaic acid stimulation); assay: Influence on TNF-α production or secretion by HL-60 cells stimulated by Okadaic acid (ELISA of supernatant); type: cell-based; conditions: for amount of TNF-α in the supernatant, Okadaic acid alone = 100%: HL-60, Okadaic acid 50 nM, 16 hours (Table 8); for amount of TNF-α, Okadaic acid alone = 100%: HL-60, Okadaic acid stimulation (Table 14)
# Protocol: (§1) Human leukemia cells HL-60 produce tumor necrosis factor (TNF-α) by stimulation of Okadaic acid (9,10-Deepithio-9,10-didehydroacanthifolicin) or 12O-tetradecanoyl phorbol-13-acetate (TPA). Influences of the compounds of the present invention to production or secretion of TNF-α by them were observed.
# Human leukemia cells (HL-60) were cultured by using a RPMI 1640 culture medium (including 5% fetal bovine serum), in a carbonic acid gas incubator (5% CO2, humidified, 37° C.). Then, the cells were pre-cultured in a RPMI 1640 culture medium (including 10% fetal bovine serum). Okadaic acid was added thereto, so that the final concentration was 50 nM based on the HL-60 cells (5×10^5 cells/ml) in an exponentially growing stage. Then, the compound of the present invention was added thereto so that the predetermined concentration could be obtained, to prepare a cell suspension, which was then cultured in a carbonic acid gas incubator (5% CO2, humidified, 37° C.). In this culture, a multiplate having 24 holes (produced by Corning) was used, and the cell suspension was injected in an amount of 0.5 ml per hole, to culture the cells.
# 16 hours after the culture started, the cells were removed by centrifugation (1000-2000 rpm×10 min), and the amount of TNF-α in the supernatant was measured in accordance with the method of Amersham, by using human TNF-α ELISA system (produced by Amersham).
# The values in the Table are values obtained by supposing the amount of TNF-αin the supernatant of the culture medium when treated only with Okadaic acid having a final concentration of 50 nM, 100%.
# Influences of the compounds of the present invention to production or secretion of TNF-α by Okadaic acid stimulation were observed, in the same manner as in Test Example 1.
# [3] = system: TNF-α production or secretion by human leukemia cells HL-60 (TPA stimulation); assay: Influence on TNF-α production or secretion by HL-60 cells stimulated by TPA (ELISA of supernatant); type: cell-based; conditions: HL-60, TPA 10 nM; for amount of TNF-α in the supernatant, TPA alone = 100%: 16 hours (Table 9); for Amount of TNF (%), TPA alone = 100%: compound 10 μM, 16 hours (Test Example 3)
# Protocol: as §1
# The same operation was carried out as in Test Example 1, except that TPA (produced by Sigma) having a final concentration of 10 nM was used, instead of Okadaic acid having a final concentration of 50 nM.
# The values in the Table are values obtained by supposing the amount of TNF-α in the supernatant of the culture medium when treated only with TPA having a final concentration of 10 nM, 100%.
# Human leukemia cells (HL-60) produce tumor necrosis factor (TNF-α) by stimulation of 12O-tetradecanoyl phorbol-13-acetate (TPA). The influences of the compounds of the present invention to production of TNF-αby it were observed.
# Human leukemia cells (HL-60) were cultured by using a RPMI 1640 culture medium (including 5% fetal bovine serum), in a carbonic acid gas incubator (5% CO2, humidified, 37° C.). Then, the cells were pre-cultured in a RPMI 1640 culture medium (including 10% fetal bovine serum). TPA was added thereto, so that the final concentration was 10 nM based on the HL-60 cells (5×10^5 cells/ml) in an exponentially growing stage. Then, the compound of the present invention was added thereto so that the predetermined concentration could be obtained, to prepare a cell suspension, which was then cultured in a carbonic gas incubator (5% CO2, humidified, 37° C.). In this culture, a multiplate having 24 holes (produced by Corning) was used, and the cell suspension was injected in an amount of 0.5 ml per hole, to culture the cells.
# 16 hours after the culture started, the cells were removed by centrifugation(1000-2000 rpm×10 min), and the amount of TNF-α in the supernatant was measured in accordance with the method of Amersham, by using human TNF-α ELISA system (produced by Amersham).
# The values are obtained by supposing the amount of TNF-α when treated only with TPA having a final concentration of 10 nM, 100%.
# The influences of the compounds of the present invention to production or secretion of TNF-α by TPA stimulation were observed, in the same manner as in Test Example 2.
# [4] = 5 mg/kg, experiment (b) (Table 15)
# [5] = 5 mg/kg, experiment (b), Control 83.3 (Table 15)
structure (smiles),measurement,setting,value
"C[C@@H](c1ccccc1)N1C(=O)c2c(F)c(F)c(F)c(F)c2C1=O [Compound 17, (S)-2-(1-phenylethyl)-4,5,6,7-tetrafluoro-1H-isoindole-1,3-dione]","Amount of hemoglobin, value in parentheses (Control = 100)","[1]; 1 mg/kg, experiment (b) (Table 15)",21
same,Amount of hemoglobin,"[1]; 1 mg/kg, experiment (b), Control 83.3 (Table 15)",17.3 μg/gel
same,"Amount of hemoglobin, value in parentheses (Control = 100)",[1]; [4],31
same,Amount of hemoglobin,[1]; [5],25.7 μg/gel
same,"amount of TNF-α in the supernatant, Okadaic acid alone = 100%",[2]; compound 1 nM,100%
same,"amount of TNF-α in the supernatant, Okadaic acid alone = 100%",[2]; compound 10 nM,99%
same,"amount of TNF-α in the supernatant, Okadaic acid alone = 100%",[2]; compound 100 nM,95%
same,"amount of TNF-α in the supernatant, Okadaic acid alone = 100%",[2]; compound 0.3 μM,70%
same,"amount of TNF-α in the supernatant, TPA alone = 100%",[3]; compound 10 nM,102%
same,"amount of TNF-α in the supernatant, TPA alone = 100%",[3]; compound 100 nM,120%
same,"amount of TNF-α in the supernatant, TPA alone = 100%",[3]; compound 0.3 μM,143%
"C[C@H](c1ccccc1)N1C(=O)c2c(F)c(F)c(F)c(F)c2C1=O [Compound 18, (R)-2-(1-phenylethyl)-4,5,6,7-tetrafluoro-1H-isoindole-1,3-dione]","Amount of hemoglobin, value in parentheses (Control = 100)",[1]; [4],78
same,Amount of hemoglobin,[1]; [5],65.1 μg/gel
same,"amount of TNF-α in the supernatant, Okadaic acid alone = 100%",[2]; compound 1 nM,97%
same,"amount of TNF-α in the supernatant, Okadaic acid alone = 100%",[2]; compound 10 nM,55%
same,"amount of TNF-α in the supernatant, Okadaic acid alone = 100%",[2]; compound 100 nM,8%
same,"amount of TNF-α in the supernatant, Okadaic acid alone = 100%",[2]; compound 0.3 μM,2%
same,"amount of TNF-α in the supernatant, TPA alone = 100%",[3]; compound 10 nM,100%
same,"amount of TNF-α in the supernatant, TPA alone = 100%",[3]; compound 100 nM,101%
same,"amount of TNF-α in the supernatant, TPA alone = 100%",[3]; compound 0.3 μM,97%
"C[C@@H](c1cccc2ccccc12)N1C(=O)c2c(F)c(F)c(F)c(F)c2C1=O [Compound 49, (S)-2-(1-naphthylethyl)-4,5,6,7-tetrafluoro-1H-isoindole-1,3-dione]","amount of TNF-α in the supernatant, Okadaic acid alone = 100%",[2]; compound 1 nM,100%
same,"amount of TNF-α in the supernatant, Okadaic acid alone = 100%",[2]; compound 10 nM,102%
same,"amount of TNF-α in the supernatant, Okadaic acid alone = 100%",[2]; compound 100 nM,100%
same,"amount of TNF-α in the supernatant, Okadaic acid alone = 100%",[2]; compound 0.3 μM,101%
same,"amount of TNF-α in the supernatant, TPA alone = 100%",[3]; compound 10 nM,100%
same,"amount of TNF-α in the supernatant, TPA alone = 100%",[3]; compound 100 nM,99%
same,"amount of TNF-α in the supernatant, TPA alone = 100%",[3]; compound 0.3 μM,101%
"C[C@@H](C1CCCCC1)N1C(=O)c2c(F)c(F)c(F)c(F)c2C1=O [Compound 68, (S)-2-(1-cyclohexylethyl)-4,5,6,7-tetrafluoro-1H-isoindole-1,3-dione]","amount of TNF-α in the supernatant, Okadaic acid alone = 100%",[2]; compound 1 nM,102%
same,"amount of TNF-α in the supernatant, Okadaic acid alone = 100%",[2]; compound 10 nM,101%
same,"amount of TNF-α in the supernatant, Okadaic acid alone = 100%",[2]; compound 100 nM,96%
same,"amount of TNF-α in the supernatant, Okadaic acid alone = 100%",[2]; compound 0.3 μM,65%
same,"amount of TNF-α in the supernatant, TPA alone = 100%",[3]; compound 10 nM,103%
same,"amount of TNF-α in the supernatant, TPA alone = 100%",[3]; compound 100 nM,115%
same,"amount of TNF-α in the supernatant, TPA alone = 100%",[3]; compound 0.3 μM,124%
"O=C1c2ccccc2C(=O)N1c1ccccc1 [Compound 201, N-phenylphthalimide]","amount of TNF-α, Okadaic acid alone = 100%",[2]; compound 1 μM,100%
same,"amount of TNF-α, Okadaic acid alone = 100%",[2]; compound 3 μM,100%
same,"amount of TNF-α, Okadaic acid alone = 100%",[2]; compound 10 μM,82%
same,"amount of TNF-α, Okadaic acid alone = 100%",[2]; compound 30 μM,60%
same,"amount of TNF-α, Okadaic acid alone = 100%",[2]; compound 100 μM,41%
"CC(C)c1cccc(C(C)C)c1N1C(=O)c2ccccc2C1=O [Compound 202, N-(2.6-diisopropylphenyl)-phthalimide]","Amount of hemoglobin, value in parentheses (Control = 100)","[1]; 10 mg/kg, experiment (a) (Table 15)",77
same,Amount of hemoglobin,"[1]; 10 mg/kg, experiment (a), Control 307.3 (Table 15)",235.4 μg/gel
same,"Amount of hemoglobin, value in parentheses (Control = 100)","[1]; 100 mg/kg, experiment (a) (Table 15)",50
same,Amount of hemoglobin,"[1]; 100 mg/kg, experiment (a), Control 307.3 (Table 15)",152.5 μg/gel
same,"amount of TNF-α, Okadaic acid alone = 100%",[2]; compound 1 μM,100%
same,"amount of TNF-α, Okadaic acid alone = 100%",[2]; compound 3 μM,80%
same,"amount of TNF-α, Okadaic acid alone = 100%",[2]; compound 10 μM,43%
same,"amount of TNF-α, Okadaic acid alone = 100%",[2]; compound 30 μM,20%
same,"amount of TNF-α, Okadaic acid alone = 100%",[2]; compound 100 μM,9%
"CC(C)c1cccc(C(C)C)c1N1C(=O)c2c(F)c(F)c(F)c(F)c2C1=O [Compound 203, N-(2,6-diisopropylphenyl)-4,5,6,7-tetra-fluoro-phthalimide]","Amount of hemoglobin, value in parentheses (Control = 100)","[1]; 1 mg/kg, experiment (a) (Table 15)",69
same,Amount of hemoglobin,"[1]; 1 mg/kg, experiment (a), Control 307.3 (Table 15)",211.4 μg/gel
same,"amount of TNF-α, Okadaic acid alone = 100%",[2]; compound 1 nM,100%
same,"amount of TNF-α, Okadaic acid alone = 100%",[2]; compound 3 nM,93%
same,"amount of TNF-α, Okadaic acid alone = 100%",[2]; compound 10 nM,75%
same,"amount of TNF-α, Okadaic acid alone = 100%",[2]; compound 30 nM,42%
same,"amount of TNF-α, Okadaic acid alone = 100%",[2]; compound 100 nM,0%
"CC(C)c1cccc(C(C)C)c1N1C(=O)Cc2ccccc2C1=O [Compound A-3, N-(2.6-diisopropylphenyl)-homophthalimide]","Amount of TNF (%), TPA alone = 100%",[3],258%
"CC(C)c1cccc(C(C)C)c1N1C(=O)c2cc3ccccc3cc2C1=O [Compound B-3, N-(2,6-diisopropylphenyl) 2,3-naphthalimide]","Amount of TNF (%), TPA alone = 100%",[3],134%
